The values that follow come from US20250313569A1, “Pharmaceutical Compounds And Compositions As Modulators Of MAS-Related G-Protein Receptor X2” (Enanta Pharmaceuticals, Inc., priority 2024, published 2025).

One assay has as its target T1, human MRGPRX2 (Homo sapiens, UniProt Q96LB1).
T1 construct: expressed in transfected cells; host or cells: HEK293
T1 sequence (Q96LB1 1-330): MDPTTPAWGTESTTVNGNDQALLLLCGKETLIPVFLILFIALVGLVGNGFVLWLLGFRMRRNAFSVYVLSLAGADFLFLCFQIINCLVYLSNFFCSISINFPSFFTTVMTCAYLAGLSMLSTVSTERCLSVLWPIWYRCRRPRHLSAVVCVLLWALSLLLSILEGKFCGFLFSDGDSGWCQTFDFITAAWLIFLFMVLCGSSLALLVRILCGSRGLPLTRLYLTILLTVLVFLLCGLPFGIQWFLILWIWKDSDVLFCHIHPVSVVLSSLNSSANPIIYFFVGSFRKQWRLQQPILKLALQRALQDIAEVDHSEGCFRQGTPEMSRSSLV
Put plainly: MRGPRX2 IP-1 Gq HTRF assay in HEK293 cells stably expressing human MRGPRX2, Cortistatin-14 at EC75. The assay is classed as cell-based. The note with it: 2 hours at 37° C., cellular IP-1. On the procedure: HEK293 cells stably expressing human MRGPRX2 were grown in Dulbecco's Modified Eagle Medium (DMEM) supplemented with 10% fetal bovine serum (FBS), 1% Glutamax, and 1 μg/mL of puromycin. Cells were maintained in a 37° C., 5% CO2 humidified incubator.
Cells were plated in a 384-well assay plate at a density of 20,000 cells per well overnight. Compounds were solubilized at 10 mM in DMSO and added as a 10-point curve using an ECHO acoustic liquid handler. On the day of the assay, Cortistatin-14 was diluted in assay buffer (provided by IP-One-Gq-HTRF kit purchased from Cisbio, 62IPAPEJ) and added to the assay plate at a final concentration corresponding to the predetermined EC75. Plates were incubated at 37° C. for 2 hours prior to addition of HTRF detection reagents per the manufacturer's instructions. The plates were read on a Perkin Elmer Envision plate reader. The HTRF ratio and cellular IP-1 levels were calculated. XLfit was used to calculate an EC50 value for each compound using a 4-parameter logistic curve fitting model. EC50 ranges are reported as follows: A<100 nM; B 0.1-1 μM; C>1 μM.

For another assay, the target named is T2, MRGPRX2 LAD2 (Homo sapiens, UniProt Q96LB1).
T2 construct: host or cells: LAD2 human mast cells
T2 sequence (Q96LB1 1-330): T1 sequence (Q96LB1 1-330)
Put plainly: LAD2 β-hexosaminidase release assay (degranulation), Cortistatin-14 at EC75. The assay is classed as cell-based. The settings on record: LAD2 cells; 1 hour compound incubation, Cortistatin-14 at EC75 for 30 minutes; percent degranulation (β-hexosaminidase). As to the method:
LAD2 cells obtained from the NIH were cultured in StemPro34 (Gibco) serum-free media supplemented with GlutaMax, penicillin and streptomycin, and 100 ng/mL SCF (Invitrogen). Cells were maintained in a 37° C., 5% CO2 humidified incubator at a concentration of 2-5E5 cells/mL, with hemidepletion once a week.
One day prior to the assay, cells were starved of SCF at a concentration of 2.3E5 cells/mL. On the day of the assay cells were washed twice in Tyrode's Buffer containing 0.04% BSA (assay buffer) and plated in a 96 well-v-bottom assay plate at 20,000 cells per well in 80 μL of assay buffer. Compounds were solubilized at 10 mM DMSO and added as a 10-fold overconcentrated 8-point curve in assay buffer in a volume of 10 μL using the JANUS liquid handler. Assay plates were incubated for 1 hour at 37° C. Cortistatin-14 was diluted in assay buffer to […] its predetermined EC75 and added to the assay plates in a volume of 10 μL. Assay plates were incubated at 37° C. for 30 minutes. After incubation, cells were pelleted and 50 μL of supernatant from each well was transferred to a 96 well flat bottom plate containing 100 μL of substrate solution (3.5 mg/mL p-Nitrophenyl-N-acetyl-β-D-glucosaminide (Sigma Aldrich) in 40 mM Citrate Buffer (Thermo Fisher)). The remaining cell pellets were lysed with 150 μL of 0.1% Triton-X-100 and mixed thoroughly. 50 μL of lysate was transferred to a 96-well flat bottom plate containing 100 μL of substrate solution. Plates with supernatants and lysates were incubated at 37° C. for 90 minutes prior to addition of 50 μL of 400 mM Glycine buffer (pH 10.7). The plates were read on a Perkin Elmer Envision plate reader at an Abs of 405 nanometers. Percent degranulation was calculated and Xlfit was used to calculate an EC50 value for each compound using a 4-parameter logistic curve fitting model. EC50 ranges are reported as follows: A<100 nM; B 0.1-1 μM; C>1 μM.

The EC50 is the concentration that produces a half-maximal response. Low readings indicate higher potency in that assay, high ones lower potency in that assay. As to `CC(C)(C)C(=O)N1C[C@@H](NC(=O)c2cccc(NS(C)(=O)=O)c2)C[C@@H](Nc2cc(C(F)(F)F)nc3ccc(Cl)cc23)C1` (racemic) [Example 15], the EC50 on human MRGPRX2 was 100 to 1000 nM. The same measure, in the same setting: for `CC(C)(C)OC(=O)N1C[C@@H](NC(=O)c2cccc(NS(C)(=O)=O)c2)C[C@@H](Nc2cc(C(F)(F)F)nc3ccc(Cl)cc23)C1` [Example 6] the value was 100 to 1000 nM; for `CS(=O)(=O)Nc1cccc(C(=O)N[C@@H]2CNC[C@H](Nc3cc(C(F)(F)F)nc4ccc(Cl)cc34)C2)c1` [Example 7], over 1000 nM; for `CNCC(=O)N1C[C@@H](NC(=O)c2cccc(NS(C)(=O)=O)c2)C[C@@H](Nc2cc(C(F)(F)F)nc3ccc(Cl)cc23)C1` [Example 12], 100 to 1000 nM. As for `CN(C)CC(=O)N1C[C@@H](NC(=O)c2cccc(NS(C)(=O)=O)c2)C[C@@H](Nc2cc(C(F)(F)F)nc3ccc(Cl)cc23)C1` [Example 13], the EC50 at human MRGPRX2 was in the range of 100 to 1000 nM.

At human MRGPRX2, `COCC(=O)N1C[C@@H](NC(=O)c2cccc(NS(C)(=O)=O)c2)C[C@@H](Nc2cc(C(F)(F)F)nc3ccc(Cl)cc23)C1` [Example 14] yielded an EC50 of under 100 nM. The same measure, in the same setting: for `CS(=O)(=O)Nc1cccc(C(=O)N[C@H]2CC(Nc3cc(C(F)(F)F)nc4ccc(Cl)cc34)CN(C(=O)C3CC3)C2)c1` (stereo partly shown) [Example 16] the value was 100 to 1000 nM. Same read-out and setting: the value for `CS(=O)(=O)Nc1cccc(C(=O)N[C@H]2CC(Nc3cc(C(F)(F)F)nc4ccc(Cl)cc34)CN(C(=O)C3CCC3)C2)c1` (stereo partly shown) [Example 17] was 100 to 1000 nM; that for `CS(=O)(=O)Nc1cccc(C(=O)N[C@H]2CC(N(C(=O)C3CC3)c3cc(C(F)(F)F)nc4ccc(Cl)cc34)CN(C(=O)C3CC3)C2)c1` (stereo partly shown) [Example 18] was 100 to 1000 nM; that for `CS(=O)(=O)Nc1cccc(C(=O)N[C@H]2CC(Nc3cc(C(F)(F)F)nc4ccc(Cl)cc34)CN(C(=O)c3cccnc3)C2)c1` (stereo partly shown) [Example 19] was 100 to 1000 nM. Same read-out and setting: the value for `CS(=O)(=O)Nc1cccc(C(=O)N[C@H]2CC(Nc3cc(C(F)(F)F)nc4ccc(Cl)cc34)CN(C(=O)Nc3ccccc3)C2)c1` (stereo partly shown) [Example 20] was 100 to 1000 nM; that for `CC(=O)N1CC(Nc2cc(C(F)(F)F)nc3ccc(F)cc23)C[C@H](NC(=O)c2cccc(NS(C)(=O)=O)c2)C1` (stereo partly shown) [Example 21] was under 100 nM. At human MRGPRX2, `CC(=O)N1CC(Nc2cc(C(F)(F)F)nc3ccccc23)C[C@H](NC(=O)c2cccc(NS(C)(=O)=O)c2)C1` (stereo partly shown) [Example 22] returned a concentration for a half-maximal effect (EC50) of 100 to 1000 nM. On human MRGPRX2, `CC(=O)N1C[C@@H](NC(=O)c2ccc(F)cc2)C[C@@H](Nc2cc(C(F)(F)F)nc3ccc(Cl)cc23)C1` [Example 23] returned an EC50 of under 100 nM.

Take `CC(=O)N1C[C@@H](NC(=O)c2ccc(F)c(F)c2)C[C@@H](Nc2cc(C(F)(F)F)nc3ccc(Cl)cc23)C1` [Example 26]: on human MRGPRX2, the half-maximal effective concentration (EC50) lay in the range of 100 to 1000 nM. On the same count and under the same terms, the value for `CC(=O)N1C[C@@H](NC(=O)c2ccc(F)cc2F)C[C@@H](Nc2cc(C(F)(F)F)nc3ccc(Cl)cc23)C1` [Example 27] was 100 to 1000 nM. With `CC(=O)N1C[C@@H](NC(=O)c2cccc(S(C)(=O)=O)c2)C[C@@H](Nc2cc(C(F)(F)F)nc3ccc(Cl)cc23)C1` [Example 28], the EC50 on human MRGPRX2 was under 100 nM.

`CCn1cc(C(=O)N[C@H]2C[C@@H](Nc3cc(C(F)(F)F)nc4ccc(Cl)cc34)CN(C(C)=O)C2)cn1` [Example 31] yielded an EC50 on human MRGPRX2 of under 100 nM.

For the compound `CC(=O)N1C[C@@H](NC(=O)c2cn(CC(F)(F)F)nn2)C[C@@H](Nc2cc(C(F)(F)F)nc3ccc(Cl)cc23)C1` [Example 33], the half-maximal effective concentration (EC50) at human MRGPRX2 fell in the range of 100 to 1000 nM. For the compound `CC(=O)N1C[C@@H](NC(=O)c2cnn(C3CCNCC3)c2C)C[C@@H](Nc2cc(C(F)(F)F)nc3ccc(Cl)cc23)C1` [Example 34], the concentration giving a half-maximal response (EC50) on human MRGPRX2 is over 1000 nM.

The compound `CC(=O)N1C[C@@H](NC(=O)c2ccccc2F)C[C@@H](Nc2cc(C(F)(F)F)nc3ccc(Cl)cc23)C1` [Example 35] had a concentration for a half-maximal effect (EC50) on human MRGPRX2 of 100 to 1000 nM. On the same count and under the same terms, the value for `CC(=O)N1C[C@@H](NC(=O)c2cccc(F)c2)C[C@@H](Nc2cc(C(F)(F)F)nc3ccc(Cl)cc23)C1` [Example 36] was under 100 nM; that for `CC(=O)N1C[C@@H](NC(=O)c2cc(F)cc(F)c2)C[C@@H](Nc2cc(C(F)(F)F)nc3ccc(Cl)cc23)C1` [Example 37] was 100 to 1000 nM; that for `CC(=O)N1C[C@@H](NC(=O)c2cnn(C(C)C)c2)C[C@@H](Nc2cc(C(F)(F)F)nc3ccc(Cl)cc23)C1` [Example 38] was 100 to 1000 nM. The same measure, in the same setting: for `CC(=O)N1C[C@@H](NC(=O)c2cnn(C)c2C)C[C@@H](Nc2cc(C(F)(F)F)nc3ccc(Cl)cc23)C1` [Example 39] the value was 100 to 1000 nM. `O=C(N[C@H]1C[C@@H](Nc2cc(C(F)(F)F)nc3ccc(Cl)cc23)CN(C(=O)C(F)F)C1)c1cn(C2CCC(F)(F)CC2)nc1Cl` [Example 121]: the 50% effective concentration (EC50) on MRGPRX2 LAD2 was under 100 nM.

Regarding `CC(C)(O)C(O)Cn1cc(C(=O)N[C@H]2C[C@@H](Nc3cc(C(F)(F)F)nc4ccc(Cl)cc34)CN(C(=O)C(F)F)C2)c(Cl)n1` (stereo partly shown) [Example 122], the EC50 at MRGPRX2 LAD2 was under 100 nM. In the case of `C[C@@H](O)Cn1cc(C(=O)N[C@H]2C[C@@H](Nc3cc(C(F)(F)F)nc4ccc(Cl)cc34)CN(C(=O)C(F)F)C2)c(Cl)n1` [Example 123], the EC50 at MRGPRX2 LAD2 was under 100 nM. On the same count and under the same terms, the value for `C[C@H](O)Cn1cc(C(=O)N[C@H]2C[C@@H](Nc3cc(C(F)(F)F)nc4ccc(Cl)cc34)CN(C(=O)C(F)F)C2)c(Cl)n1` [Example 124] was under 100 nM. `O=C(C(F)F)N1C[C@@H](Nc2nccc3ccccc23)C[C@@H](Nc2cc(C(F)(F)F)nc3ccc(Cl)cc23)C1` [Example 125] gave an EC50 at MRGPRX2 LAD2 of under 100 nM. On MRGPRX2 LAD2, `C[C@@H]1CCCN1C(=O)N[C@H]1C[C@@H](Nc2cc(C(F)(F)F)nc3ccc(Cl)cc23)CN(C(=O)C(F)F)C1` [Example 126] gave an EC50 of under 100 nM. On the same count and under the same terms, for `O=C(N[C@H]1C[C@@H](Nc2cc(C(F)(F)F)nc3ccc(Cl)cc23)CN(C(=O)C(F)F)C1)N1CC[C@H](O)C1` [Example 127] the value was under 100 nM; for `O=C(N[C@H]1C[C@@H](Nc2cc(C(F)(F)F)nc3ccc(Cl)cc23)CN(C(=O)C(F)F)C1)N1CCCC2(CC2)C1` [Example 128], under 100 nM; for `CC(=O)N1C[C@@H](NC(=O)N2CCc3cn(C)nc3C2)C[C@@H](Nc2cc(C(F)(F)F)nc3ccc(Cl)cc23)C1` [Example 129], under 100 nM.

Compound `CC(=O)N1C[C@@H](NC(=O)c2cn(CC(F)(F)F)nc2C2CC2)C[C@@H](Nc2c(F)c(C(F)(F)F)nc3cc(F)c(Cl)cc23)C1` [Example 130] yielded an EC50 at MRGPRX2 LAD2 of under 100 nM. Same read-out and setting: the value for `CC(=O)N1C[C@@H](NC(=O)c2cn(CC(F)(F)F)nc2C2CC2)C[C@@H](Nc2cc(C(F)(F)F)nc3ccc(OC(F)(F)F)cc23)C1` [Example 132] was under 100 nM; that for `CC(=O)N1C[C@@H](NC(=O)c2cn(CC(F)(F)F)nc2C2CC2)C[C@@H](Nc2cc(C(F)(F)F)nc3cc(F)c(Cl)cc23)C1` [Example 133] was under 100 nM. Still for that read-out and setting: the value for `CC(=O)N1C[C@@H](NC(=O)c2cn(CC(F)(F)F)nc2C2CC2)C[C@@H](Nc2c(C)c(C(F)(F)F)nc3ccc(Cl)cc23)C1` [Example 135] was under 100 nM; that for `CC(=O)N1C[C@@H](NC(=O)c2cn(CC(F)(F)F)nc2C2CC2)C[C@@H](Nc2c(F)c(C(F)(F)F)nc3ccc(Cl)cc23)C1` [Example 136] was under 100 nM.

Consider `CC(=O)N1C[C@@H](NC(=O)c2cn(CC(F)(F)F)nc2C2CC2)C[C@@H](Nc2cc(C(F)(F)F)nc3c(F)cc(Cl)cc23)C1` [Example 139], for which the EC50 at MRGPRX2 LAD2 is under 100 nM.
